# Target: GPR34 (Homo sapiens, UniProt Q9UPC5)
# Assay: Tango assay
# Format: cell-based
# Details: compared with Hit-1 or YL-365
# Sequence of GPR34 (Q9UPC5 whole entry): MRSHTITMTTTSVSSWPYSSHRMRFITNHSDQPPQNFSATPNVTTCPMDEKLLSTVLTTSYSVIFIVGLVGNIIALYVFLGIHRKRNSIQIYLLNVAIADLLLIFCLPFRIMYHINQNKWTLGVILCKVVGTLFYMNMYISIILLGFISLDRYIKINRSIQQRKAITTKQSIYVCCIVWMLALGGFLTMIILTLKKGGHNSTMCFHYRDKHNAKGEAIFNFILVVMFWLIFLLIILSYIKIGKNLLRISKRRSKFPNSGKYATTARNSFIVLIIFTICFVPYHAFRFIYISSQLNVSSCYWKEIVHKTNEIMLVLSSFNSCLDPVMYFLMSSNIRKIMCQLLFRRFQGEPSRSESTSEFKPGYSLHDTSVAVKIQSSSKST
smiles,measurement,value
NC(=O)C1(NC(=O)Cc2ccc(OCc3ccccc3)cc2)CCN(C(=O)c2ccc(-c3cccc(Cl)c3)cc2)CC1 [C-27],Potency against GPR34 in words (SAR),showed antagonistic effect

# Source: article PMC10523607 (Proceedings of the National Academy of Sciences of the …, 2023)
